Measured values taken from US20030109418A1, “Methods for identifying compounds for inhibition of neoplastic lesions, and pharmaceutical compositions containing such compounds” (priority 1999, published 2003).
Like-named read-outs stand apart in the source and are kept apart here.

Legend:
[1] = molecular target: T1, purified cyclooxygenase (Type 1, COX-I) from ram seminal vesicles (Ovis aries, UniProt P05979); assay: COX inhibition assay, purified cyclooxygenase; assay type: biochemical; conditions: for COX Inhibition: qualitative activity profile
T1 construct: using purified cyclooxygenase from ram seminal vesicles as described previously; tissue Cayman Chemical, Ann Arbor, Mich; (named in the general protocol only); host or cells: ram seminal vesicles
T1 sequence (P05979 25-600): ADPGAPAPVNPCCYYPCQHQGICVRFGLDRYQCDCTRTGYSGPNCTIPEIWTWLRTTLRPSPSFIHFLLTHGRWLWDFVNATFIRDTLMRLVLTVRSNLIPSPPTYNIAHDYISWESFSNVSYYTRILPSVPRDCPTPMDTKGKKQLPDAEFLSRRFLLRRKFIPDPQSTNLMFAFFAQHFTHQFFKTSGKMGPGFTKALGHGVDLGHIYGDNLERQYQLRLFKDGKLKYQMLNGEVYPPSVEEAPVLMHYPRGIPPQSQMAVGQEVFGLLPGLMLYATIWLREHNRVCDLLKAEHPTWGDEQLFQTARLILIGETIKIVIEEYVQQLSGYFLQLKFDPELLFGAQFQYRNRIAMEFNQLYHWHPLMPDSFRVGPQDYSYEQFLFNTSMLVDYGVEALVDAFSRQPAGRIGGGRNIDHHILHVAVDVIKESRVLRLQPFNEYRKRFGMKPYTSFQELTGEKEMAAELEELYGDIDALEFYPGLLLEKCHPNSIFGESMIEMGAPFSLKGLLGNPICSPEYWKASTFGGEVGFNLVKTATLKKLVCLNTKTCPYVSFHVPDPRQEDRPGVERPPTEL

[2] = test system: cGMP PDE purified from human colon HT-29 cultured tumor cells; assay: cGMP PDE inhibition assay; assay type: biochemical; conditions: for PDE Inhibition: qualitative activity profile
[3] = test system: HT-29 colon adenocarcinoma cells; assay: Apoptosis by DNA fragmentation assay in HT-29; assay type: cell-based, human; conditions: qualitative activity profile; note: key: −: Not active; +: Slightly active; ++: Moderately active; +++: Strongly active; ++++: Highly active
[4] = test system: HT-29 human colon carcinoma cell line; assay: Growth inhibition, SRB assay, HT-29; assay type: cell-based; set-up: Growth Inhibition: key to the marks not given beside the values; conditions: for Growth Inhibition: qualitative activity profile; for IC50: HT-29 treated for 6 days, SRB assay, read-out: Growth inhibition (IC50)
[5] = test system: premalignant lesions in mouse mammary gland organ culture; assay: Mammary gland organ culture model; assay type: cell-based; conditions: for Mammary Gland Organ Culture: qualitative activity profile; for mammary gland organ culture: key: −: Not active; +: Slightly active; ++: Moderately active; +++: Strongly active; ++++: Highly active
Description: Test compounds identified by the above methods can be tested for antineoplastic activity by their ability to inhibit the incidence of pre-neoplastic lesions in a mammary gland organ culture system. This mouse mammary gland organ culture technique has been successfully used by other investigators to study the effects of known antineoplastic agents such as certain NSAIDs, retinoids, tamoxifen, selenium, and certain natural products, and is useful for validation of the screening method of the present invention.
For example, female BALB/c mice can be treated with a combination of estradiol and progesterone daily, in order to prime the glands to be responsive to hormones in vitro. The animals are sacrificed, and thoracic mammary glands are excised aseptically and incubated for ten days in growth media supplemented with insulin, prolactin, hydrocortisone, and aldosterone. DMBA (7,12-dimethylbenz(a)anthracene) is added to medium to induce the formation of premalignant lesions. Fully developed glands are then deprived of prolactin, hydrocortisone, and aldosterone, resulting in the regression of the glands but not the pre-malignant lesions.
The test compound is dissolved in DMSO and added to the culture media for the duration of the culture period. At the end of the culture period, the glands are fixed in 10% formalin, stained with alum carmine, and mounted on glass slides. The incidence of forming mammary lesions is the ratio of the glands with mammary lesions to […]. The incidence of mammary lesions in test compound treated glands is compared with that of the untreated glands.
The extent of the area occupied by the mammary lesions can be quantitated by projecting an image of the gland onto a digitation pad. The area covered by the gland is traced on the pad and considered as 100% of the area. The space covered by each of the non-regressed structures is also outlined on the digitization pad and quantitated by the computer.
Mammary gland organ culture experiment were performed as previously described (Mehta and Moon, Cancer Research, 46: 5832-5835, 1986). […] The data support the hypothesis that cyclooxygenase inhibition is not necessary for the anti-neoplastic properties of desired compounds.

[6] = molecular target: T2, cGMP binding sites of the GST-cGB-PDE5 protein (Homo sapiens, UniProt O76074); assay: cGMP binding assay with GST-cGB-PDE5 fusion protein; conditions: for competition with cGMP binding at high concentration: 100 μM competitor, cGMP 2 μM
T2 construct: made in house; host or cells: E. coli BL21 (DE3)

HT-29 cells = assay: Apoptosis and necrosis by morphology (acridine orange and ethidium bromide); assay type: cell-based, human; conditions: HT-29 treated for 6 days
Description: Apoptosis occurs naturally during normal tissue turnover and during embryonic development of organs and limbs. Apoptosis also is induced by cytotoxic T-lymphocytes and natural killer cells, by ionizing radiation and by certain chemotherapeutic drugs. Inappropriate regulation of apoptosis is thought to play an important role in many pathological conditions including cancer, AIDS, or Alzheimer's disease, etc. Compounds can be screened for induction of apoptosis using cultures of tumor cells maintained under conditions as described above. Treatment of cells with test compounds involves either pre- or post-confluent cultures and treatment for two to seven days at various concentrations. Apoptotic cells are measured in both the attached and “floating” compartments of the cultures. Both compartments are collected by removing the supernatant, trypsinizing the attached cells, and combining both preparations following a centrifugation wash step (10 minutes, 2000 rpm). The protocol for treating tumor cell cultures with sulindac and related compounds to obtain a significant amount of apoptosis has been described in the literature. (See, Piazza, G. A., et al., Cancer Research, 55:3110-16, 1995, which is incorporated herein by reference). The novel features include collecting both floating and attached cells, identification of the optimal treatment times and dose range for observing apoptosis, and identification of optimal cell culture conditions.
Following treatment with a compound, cultures can be assayed for apoptosis and necrosis by florescent microscopy following labeling with acridine orange and ethidium bromide. The method for measuring apoptotic cell number has previously been described by Duke & Cohen, “Morphological And Biochemical Assays Of Apoptosis,” Current Protocols In Immunology, Coligan et al., eds., 3.17.1-3.17.16 (1992, which is incorporated herein by reference).
For example, floating and attached cells can be collected by trypsinization and washed three times in PBS. Aliquots of cells can be centrifuged. The pellet can then be re-suspended in media and a dye mixture containing acridine orange and ethidium bromide prepared in PBS and mixed gently. The mixture can then be placed on a microscope slide and examined for morphological features of apoptosis.
Reference compounds and test compounds were analyzed for their novel PDE inhibitory activity in accordance with the protocols for the assay, supra. […] Apoptotic and necrotic cell death was determined previously (Duke and Cohen, In: Current Protocols in Immunology, 3.17.1-3.17.16, New York, John Wiley and Sons, 1992). […] All data were collected from the same experiment.
The apoptosis inducing activity for a series of phosphodiesterase inhibitors was determined. HT-29 cell were treated for 6 days with various inhibitors of phosphodiesterase. Apoptosis and necrosis were determined morphologically after acridine orange and ethidium bromide labeling in accordance with the assay described, supra.

[7] = molecular target: T3, PDE peak A (PDE5) from SW480 cells (Homo sapiens, UniProt O76074); assay: cGMP hydrolysis inhibition, PDE peak A from SW480; assay type: biochemical
T3 construct: endogenous in cells; host or cells: SW480 colon cancer cells, DEAE-Trisacryl M fraction

[8] = test system: cGMP and cAMP levels in HT-29 cells; assay: Cyclic nucleotide levels in cultured cells by radioimmunoassay; assay type: cell-based, human; conditions: HT-29 cells treated 30 minutes

CC(=O)NC(CSC12CC(=O)OC1(C)/C(=C/c1ccc(S(C)(=O)=O)cc1)c1ccc(F)cc12)C(=O)O (racemic) [D, rac-(E)-1-(butan-1′,4′-olido)-[3′,4′: 1,2]-6-fluoro-2-methyl-3-(p-methylsulfonylbenzylidene)-1S-indanyl-N-acetylcysteine]
Cyclooxygenase inhibitory activity, % Inhibition at 100 μM [1]: <25% | COX Inhibition [1]: − | PDE Inhibition [2]: − | Apoptosis [3]: − | Growth-inhibitory activity, % Inhibition at 100 μM [4]: 78% | Growth Inhibition [4]: ++ | Mammary Gland Organ Culture [5]: −

CCCCOC1C2OP(=O)(O)OCC2OC1n1cnc2c(N)ncnc21 (centres unmarked) [2′-O-butyl-cAMP]
competition with cGMP in binding of GST-cGB-PDE5 ([6]; 3H-cGMP 2 μM): did not compete with cGMP in binding

CCCCOC1C2OP(=O)(O)OCC2OC1n1cnc2c(=O)[nH]c(N)nc21 (centres unmarked) [2′-O-butyl-cGMP]
competition with cGMP in binding of GST-cGB-PDE5 ([6]; 3H-cGMP 2 μM): did not compete with cGMP in binding

COc1nc2c([nH]1)c(=O)n(C)c(=O)n2CC(C)C [8-methoxy-IBMX]
% Apoptosis (HT-29 cells): 2% | % Necrosis (HT-29 cells): 1% | IC50 [4]: > 200 µM

Nc1nc2c(nc(Br)n2[C@@H]2O[C@@H]3COP(=O)(O)O[C@H]3[C@H]2O)c(=O)[nH]1 [Compound 8-bromo-cGMP]
competition with cGMP binding at high concentration [6]: can partially compete

CC1=C(CC(=O)O)c2cc(F)ccc2/C1=C\c1ccc(Cl)cc1 [Compound C, (Z)-5-Fluoro-2-methyl-1-(p-chlorobenzylidene)-3-acetic acid]
cGMP PDE inhibitory activity, % Inhibition at 10 μM ([2]; 10 μM): <25% | Growth-inhibitory activity, % Inhibition at 100 μM [4]: 80%

Nc1ncnc2c1ncn2[C@@H]1O[C@@H]2COP(=O)(O)O[C@H]2[C@H]1O [Cyclic AMP]
competition with cGMP in binding of GST-cGB-PDE5 [6]: did not compete with cGMP in binding

O=c1[nH]cnc2c1ncn2[C@@H]1O[C@@H]2COP(=O)(O)O[C@H]2[C@H]1O [Cyclic IMP]
competition with cGMP binding at high concentration [6]: can partially compete

CC1=C(CC(=O)N(C2CCCCC2)C2CCCCC2)c2cc(F)ccc2/C1=C\c1ccc(S(C)(=O)=O)cc1 [F, (Z)-5-Fluoro-2-methyl-1-(p-methylsulfonylbenzylidene)-3-indenylacetamide, N,N′-dicyclohexyl]
COX Inhibition [1]: − | PDE Inhibition [2]: − | Apoptosis [3]: + | Growth Inhibition [4]: ++ | Mammary Gland Organ Culture [5]: −

CC(C)Cn1c(=O)n(C)c(=O)c2[nH]cnc21 [IBMX]
% Apoptosis (HT-29 cells): 4% | % Necrosis (HT-29 cells): 13% | IC50 [4]: > 100 µM

CC1(C)C(=O)Nc2ccc(C3=NNC(=O)CC3)cc21 [Indolidan]
Ratio (IC50 Peak A/Peak B) [7]: <0.31

Clc1cccc(Nc2nnc(-c3ccccc3)c3ccccc23)c1 [MY5445, 1-(3-chloroanilino)-4-phenyphthalazine]
Cyclooxygenase inhibitory activity, % Inhibition at 100 μM [1]: 94% | COX Inhibition [1]: ++++ | PDE Inhibition [2]: +++ | Apoptosis [3]: +++ | % Apoptosis (HT-29 cells): 80% | % Necrosis (HT-29 cells): 5% | IC50 [4]: 5 µM | Growth Inhibition [4]: +++ | Mammary Gland Organ Culture [5]: +

CCCCOc1cc(CC2CNC(=O)N2)ccc1OC (centres unmarked) [RO-20-1724]
% Apoptosis (HT-29 cells): 11% | % Necrosis (HT-29 cells): 2% | IC50 [4]: > 200 µM

COc1ccc(C2CNC(=O)C2)cc1OC1CCCC1 (centres unmarked) [Rolipram]
effect on cAMP levels [8]: increased cAMP

CCCOc1ccccc1-c1nc2nn[nH]c2c(=O)[nH]1 [Zaprinast]
competition with cGMP in binding of GST-cGB-PDE5 ([6]; 3H-cGMP 2 μM): do not bind to the cGMP binding sites of PDE5

Nc1ccn([C@@H]2O[C@@H]3COP(=O)(O)O[C@H]3[C@H]2O)c(=O)n1 [cCMP]
competition with cGMP in binding of GST-cGB-PDE5 ([6]; 3H-cGMP 2 μM): did not compete with cGMP in binding

O=c1ccn([C@@H]2O[C@@H]3COP(=O)(O)O[C@H]3[C@H]2O)c(=O)[nH]1 [cUMP]
competition with cGMP in binding of GST-cGB-PDE5 ([6]; 3H-cGMP 2 μM): did not compete with cGMP in binding

CC1=C(CC(=O)O)c2cc(F)ccc2/C1=C\c1ccc([S+](C)[O-])cc1 (centres unmarked) [sulindac]
inhibition of the formation of premalignant lesions ([5]; mammary gland organ culture): effectively inhibit the formation of premalignant lesions

rac-(E)-1-(butan-1′, 4′-olido)-[3′, 4′: 1,2]-6-fluoro-2-methyl-3-(p-methylsulfonylbenzylidene)-1S-indanyl-glutathione)
COX Inhibition [1]: − | PDE Inhibition [2]: − | Apoptosis [3]: − | Growth Inhibition [4]: ++ | Mammary Gland Organ Culture [5]: −

ribo-(E)-1-Triazolo-[2′, 3′: 1″, 3″]-1-(butan-1′, 4′-olido)-[3′, 4′: 1, 2]-6-flouro-2-methyl-3-(p-methylsulfonylbenzylidene)-indan [G]
COX Inhibition [1]: − | PDE Inhibition [2]: − | Apoptosis [3]: ++ | Growth Inhibition [4]: +++ | Mammary Gland Organ Culture [5]: +++
